Results published in patent US20150335624A1, “COMPOSITIONS AND METHODS FOR USING HUPERZINE AND ANALOGS THEREOF” (INSERO HEALTH INC., priority 2013, published 2015).
Where “and” joins values, the source holds several entries; their conditions need not be identical. Equal values may be shown once.

What was measured:
Assay type in all cases: in vivo, human
IL-6 [1] = test: Phase 1 clinical trial, inflammatory marker IL-6 (IITR1); conditions: excluding #7
Procedure: (§1) A phase 1 clinical trial was conducted with huperzine A. The primary aim of the study was to conduct a proof-of-principle assessment of the safety and tolerability and early stage pharmacokinetics of dietary supplement Huperzine A up to 6.4 mg/day as add-on, open-label therapy in 8 subjects with drug-resistant epilepsy. The hypothesis was that Huperzine A in 8 subjects with drug-resistant epilepsy as add-on; open-label therapy would be well tolerated when titrated from 1.6 mg/day up to 6.4 mg/day. The secondary aim was to acquire preliminary data on the parasympathetic effect of Huperzine A on cardiac function.
(§2) The trial was a single-center, in-patient, open-label, dose-escalation study conducted at one site. This study would enroll up to 10 adults (≧18 years to 65 years) to obtain 8 randomized subjects with drug-resistant epilepsy that were not well controlled with 1 to 3 concomitant anti-epileptic drugs (AEDs).
(§3) Eight subjects with drug-resistant epilepsy were provided huperzine A. Six subjects completed the study. Doses were varied as in Table A. Doses were six hours apart. Subjects 1-3 began dosing at 18:00, subjects 4-8 began dosing at 12:00.
(§4) Table B provides biomarker test results. Baseline, peak and change values represented as mean±the standard error of the mean (SEM). Statistical data is included for all subjects excluding subject #7 because that subject was on a conflicting medication. Peak represents peak plasma level or, if unavailable, the nearest values for all values except cardiological markers where peak represents Day 2. The p-values were calculated from one-sided paired t tests.

IL-1 beta = test: Phase 1 clinical trial, inflammatory marker IL-1 beta; conditions: excluding #7
Procedure: as §1, §2, §3, §4

IL-17 = test: Phase 1 clinical trial, inflammatory marker IL-17; conditions: excluding #7
Procedure: as §1, §2, §3, §4

[2] = Phase 1 clinical trial, renal marker eGFR (creatinine clearance rate); conditions: excluding #7
Procedure: as §1, §2, §3, §4

TNF-alpha = test: Phase 1 clinical trial, inflammatory marker TNF-alpha; conditions: excluding #7
Procedure: as §1, §2, §3, §4

IL-6 [3] = test: Phase 1 clinical trial, inflammatory marker IL-6 (Labcorp, different test center); conditions: excluding #7
Procedure: as §1, §2, §3, §4

CRP = test: Phase 1 clinical trial, cardiologic marker CRP
Procedure: as §1, §2, §3, §4

MCP-1 = test: Phase 1 clinical trial, marker MCP-1
Procedure: as §1, §2, §3, §4
Monocyte chemotactic protein-1 (MCP-1) as a marker is implicated in pathogeneses of several diseases characterized by monocytic infiltrates. MCP-1 is involved in the neuroinflammatory processes that take place in the various diseases of the central nervous system, which are characterized by neuronal degeneration. MCP-1 expression in glial cells is increased in epilepsy, brain ischemia, Alzheimer's disease, some encephalomyelitis, and traumatic brain injury.

[4] = Phase 1 clinical trial, renal marker serum creatinine
Procedure: as §1, §2, §3, §4

IL-10 = test: Phase 1 clinical trial, inflammatory marker IL-10; conditions: excluding #7
Procedure: as §1, §2, §3, §4

[5] = Phase 1 clinical trial, peak plasma level of huperzine A
Procedure: as §1, §2
The study drug was supplied as 0.200 mg tablets and dispensed by the study site's pharmacy. Huperzine A tablets derived from Huperzia serrata were sourced from a commercially available supplier in the United States.
Randomly chosen tablets of the supplied trial medication, as well as a composite have been assessed for purity by an independent laboratory using standard analytic techniques (HPLC) and found to contain between 0.145 mg and 0.166 mg of Huperzine A per tablet. Subject dosing was based on the label potency of the tablets (i.e. 0.200 mg). Tablets were randomly assigned to each subject in a dosing bottle container containing 120 tablets per subject. Each bottle was labeled with a study identifier. subject ID, dose of each tablet, dosing instructions, expiration date, and lot number.
as §3

[6] = Phase 1 clinical trial, ECG recording of cardiac function (heart rate, HRV, TWA, QT, VPB, VT); conditions: for T-wave alternans (TWA): all leads; for TWA elevated: in the normal range
Procedure: as §1, §2, §3
Heart rate, heart rate variability. T-wave alternans, QT interval, ventricular premature beats, and ventricular tachycardia were studied in all 8 subjects enrolled in the study. […] This individual experienced transient peaks in heart rate and a few ventricular premature beats, probably due to an emesis-related surge in sympathetic nerve activity. […] ECG recordings show a transient disconnect in subjects one.

[7] = peak vs baseline, mean ± SEM, excluding #7
[8] = 8 subjects, full recording period
[9] = 8 subjects, full recording period, listed as huperzine

Q: What does the source list for C/C=C1\[C@H]2C=C(C)C[C@]1(N)c1ccc(=O)[nH]c1C2 [Huperzine A, (1R,9,13E)-1-amino-13-ethylidene-11-methyl-6-azatricyclo[7.3.1.0^2,7]trideca-2(7),3,10-trien-5-one]?
A: IL-6 (IITR1) Peak (IL-6 [1]; mean ± SEM, at peak plasma level, baseline 1.3 ± 0.2): 2.8 ± 0.7 pg/mL; IL-6 (IITR1) % Change (IL-6 [1]; peak vs baseline): 115%; IL-6 (IITR1) Change (IL-6 [1]; peak vs baseline, mean ± SEM): 1.5 ± 1.5 pg/mL; IL-1 beta Peak (IL-1 beta; mean ± SEM, at peak plasma level, baseline 23.9 ± 12.4): 30.0 ± 9.8 pg/mL; IL-1 beta % Change (IL-1 beta; peak vs baseline): 26%; IL-1 beta Change (IL-1 beta; peak vs baseline, mean ± SEM): 6.1 ± 5.2 pg/mL; IL-17 Peak (IL-17; mean ± SEM, at peak plasma level, baseline 35.1 ± 17.7): 36.1 ± 19.2 pg/mL; IL-17 % Change (IL-17; peak vs baseline): 3%; IL-17 Change (IL-17; peak vs baseline, mean ± SEM): 1.0 ± 1.0 pg/mL; eGFR (flow rate) Peak ([2]; mean ± SEM, at peak plasma level, baseline 98.3 ± 23.5): 107.6 ± 13.4 mL/min/1.73; eGFR (flow rate) % Change ([2]; peak vs baseline): 9%; eGFR (flow rate) Change ([2]; peak vs baseline, mean ± SEM): 9.3 ± 12.7 mL/min/1.73; TNF-alpha Peak (TNF-alpha; mean ± SEM, at peak plasma level, baseline 1.6 ± 0.4): 1.3 ± 0.4 pg/mL; TNF-alpha % Change (TNF-alpha; peak vs baseline): −15%; TNF-alpha Change (TNF-alpha; peak vs baseline, mean ± SEM): -0.2 ± 0.1 pg/mL; IL-6 (Labcorp) Peak (IL-6 [3]; mean ± SEM, at peak plasma level, baseline 1.8 ± 1.2): 4.2 ± 2.4 pg/mL; IL-6 (Labcorp) % Change (IL-6 [3]; peak vs baseline): 133%; IL-6 (Labcorp) Change (IL-6 [3]; peak vs baseline, mean ± SEM): 2.4 ± 2.6 pg/mL; decrease in CRP (CRP; from an average of 2.6±3.0 mg/L, p-value 0.02): 29%; CRP Peak (CRP; mean ± SEM, subjects excluding #7, peak = Day 2, baseline 2.6 ± 3.0): 1.8 ± 2.3 mg/L; CRP % Change (CRP; peak vs baseline, excluding #7): −29%; CRP Change (CRP; [7]): -0.7 ± 0.8 mg/L; decrease in levels of MCP-1 (MCP-1; from an average of 175.2±43.5 pg/mL): 15%; MCP-1 Peak (MCP-1; mean ± SEM, excluding #7, at peak plasma level, baseline 175.2 ± 43.5): 148.9 pg/mL and 148.9 ± 26.3 pg/mL; MCP-1 % Change (MCP-1; peak vs baseline, excluding #7): −15%; MCP-1 Change (MCP-1; [7]): -26.3 ± 28.6 pg/mL; decrease in serum creatinine ([4]; from an average of 0.9 mg/dL, p-value 0.02): 18%; Serum creatine Peak ([4]; mean ± SEM, excluding #7, at peak plasma level, baseline 0.9 ± 0.3): 0.7 ± 0.1 mg/dL; Serum creatine % Change ([4]; peak vs baseline, excluding #7): −18%; Serum creatine Change [4, 7]: -0.2 ± 0.2 mg/dL; IL-10 Peak (IL-10; mean ± SEM, at peak plasma level, baseline 7.3 ± 2.7): 8.8 ± 1.5 pg/mL; IL-10 % Change (IL-10; peak vs baseline): 21%; IL-10 Change (IL-10; peak vs baseline, mean ± SEM): 1.6 ± 1.6 pg/mL; Peak Plasma ([5]; Subject 1, oral tablets, 4 doses 0.40-0.80 mg six hours apart): 2.6 ng/mL; Peak Plasma ([5]; Subject 2, 3 doses 0.40-0.80 mg six hours apart): 6.7 ng/mL; Peak Plasma ([5]; Subject 3, 12 doses 0.40-0.80 mg six hours apart): 9.6 ng/mL; Peak Plasma ([5]; Subject 4, 11 doses 0.40-0.60 mg six hours apart): 11.8 ng/mL; Peak Plasma ([5]; Subject 5, 13 doses 0.40-0.80 mg six hours apart): 12.9 ng/mL; Peak Plasma ([5]; Subject 6, 13 doses 0.40-0.60 mg six hours apart): 15.9 ng/mL; Peak Plasma ([5]; Subject 7, 13 doses 0.40-0.60 mg six hours apart): 13.2 ng/mL; T-wave alternans (TWA) [6, 8]: generally low in all leads; T-wave alternans (TWA) [6, 9]: low TWA levels; QTc interval ([6]; 8 subjects, corrected using Bazett's formula): none of the 8 subjects in the study exhibited an increase in QTc interval; episodes of ventricular tachycardia ([6]; 8 subjects, entire recording period): no episodes of ventricular tachycardia occurred in any of the 8 subjects; Heart rate [6, 8]: stable throughout the recordings in all but one subject; QT interval [6, 8]: unaltered; ventricular premature beat (VPB) count [6, 8]: low; Heart rate [6, 9]: 7 of the 8 subjects exhibited stable heart rates; heart rate variability, low frequency/high frequency (LF/HF) ratio ([6]; 8 subjects, full recording period, normal range about 1 to about 4): stable; cardiac electrical activity ([6]; after huperzine administration): remains normal; LF/HF ratio trend ([6]; during the first 6 hours of recording): trend toward lowering of the LF/HF ratio; TWA elevated ([6]; subject 1007): about 25 μV; increase in heart rate ([6]; subject only, apparently related to emesis): about 120 beats/min; TWA elevated ([6]; subject two, during final 120-beat/min heart rate surge): about 30 μV
